Laboratory results: the NIST ThermoML archive (doi:10.1016/j.jct.2019.02.025)

Tests used:
[1] = refractive index (Na D-line) (dimensionless); settings: 101.33 kPa, Liquid, Standard Abbe refractometry
[2] = for mass density / kinematic viscosity: 101.33 kPa, Liquid; for mass density: Vibrating tube method; for surface tension liquid-gas / kinematic viscosity: Surface laser light scattering (SLLS)

CCCCCC(=O)OC [methyl hexanoate]
Settings	kinematic viscosity [m2/s]	mass density [kg/m3]	refractive index	surface tension liquid-gas [mN/m]
[1], 278.15 K	–	–	1.41212	–
[1], 283.15 K	–	–	1.40984	–
[1], 288.15 K	–	–	1.40757	–
[1], 293.15 K	–	–	1.40529	–
[1], 298.15 K	–	–	1.403	–
[1], 303.15 K	–	–	1.4007	–
[1], 308.15 K	–	–	1.39841	–
[1], 313.15 K	–	–	1.3961	–
[1], 318.15 K	–	–	1.39373	–
[1], 323.15 K	–	–	1.39136	–
[1], 328.15 K	–	–	1.38902	–
[1], 333.15 K	–	–	1.38667	–
[1], 338.15 K	–	–	1.38432	–
[1], 343.15 K	–	–	1.38169	–
[1], 348.15 K	–	–	1.37961	–
[1], 353.15 K	–	–	1.37725	–
[1], 358.15 K	–	–	1.3749	–
[2], 293.15 K	–	884.44	–	–
[2], 298.14 K	1.02e-06	–	–	24.58
[2], 303.15 K	–	874.79	–	–
[2], 313.15 K	–	865.12	–	–
[2], 323.15 K	–	855.4	–	–
[2], 323.17 K	7.49e-07	–	–	22.44
[2], 333.15 K	–	845.68	–	–
[2], 343.15 K	–	835.87	–	–
[2], 348.18 K	5.74e-07	–	–	20.35
[2], 353.15 K	–	825.97	–	–
[2], 363.15 K	–	815.95	–	–
[2], 373.15 K	–	805.49	–	–
[2], 373.21 K	4.53e-07	–	–	18.03
[2], 383.15 K	–	795.6	–	–
[2], 393.15 K	–	785.23	–	–
[2], 398.2 K	3.74e-07	–	–	15.63
[2], 403.15 K	–	774.67	–	–
[2], 413.15 K	–	763.86	–	–
[2], 423.17 K	3.25e-07	–	–	13.36
[2], 448.17 K	2.82e-07	–	–	11.18

CCCCCCCC(=O)OC [methyl octanoate]
Settings	kinematic viscosity [m2/s]	mass density [kg/m3]	refractive index	surface tension liquid-gas [mN/m]
[1], 278.15 K	–	–	1.42385	–
[1], 283.15 K	–	–	1.42168	–
[1], 288.15 K	–	–	1.41951	–
[1], 293.15 K	–	–	1.41734	–
[1], 298.15 K	–	–	1.41516	–
[1], 303.15 K	–	–	1.41298	–
[1], 308.15 K	–	–	1.41079	–
[1], 313.15 K	–	–	1.40854	–
[1], 318.15 K	–	–	1.40629	–
[1], 323.15 K	–	–	1.40405	–
[1], 328.15 K	–	–	1.40183	–
[1], 333.15 K	–	–	1.39965	–
[1], 338.15 K	–	–	1.3975	–
[1], 343.15 K	–	–	1.39535	–
[1], 348.15 K	–	–	1.3932	–
[1], 353.15 K	–	–	1.39104	–
[1], 358.15 K	–	–	1.38886	–
[2], 293.15 K	–	876.58	–	–
[2], 298.19 K	1.51e-06	–	–	24.65
[2], 303.15 K	–	866.75	–	–
[2], 313.15 K	–	858.95	–	–
[2], 323.15 K	–	850.13	–	–
[2], 323.21 K	1.09e-06	–	–	23.02
[2], 333.15 K	–	841.3	–	–
[2], 343.15 K	–	832.44	–	–
[2], 348.23 K	8.31e-07	–	–	21.61
[2], 353.15 K	–	823.54	–	–
[2], 363.15 K	–	814.59	–	–
[2], 373.15 K	–	805.56	–	–
[2], 373.28 K	6.5e-07	–	–	19.62
[2], 383.15 K	–	796.52	–	–
[2], 393.15 K	–	787.36	–	–
[2], 398.31 K	5.19e-07	–	–	17.62
[2], 403.15 K	–	778.1	–	–
[2], 413.15 K	–	768.72	–	–
[2], 423.15 K	–	759.27	–	–
[2], 423.31 K	4.3e-07	–	–	15.47
[2], 433.15 K	–	749.61	–	–
[2], 443.15 K	–	739.56	–	–
[2], 448.33 K	3.59e-07	–	–	13.44
[2], 453.15 K	–	729.82	–	–

CCCCCCCCCCCCCC(=O)OC [methyl tetradecanoate]
Settings	kinematic viscosity [m2/s]	mass density [kg/m3]	refractive index	surface tension liquid-gas [mN/m]
[1], 293.15 K	–	–	1.43704	–
[1], 298.15 K	–	–	1.43499	–
[1], 303.15 K	–	–	1.43296	–
[1], 308.15 K	–	–	1.43093	–
[1], 313.15 K	–	–	1.4289	–
[1], 318.15 K	–	–	1.42681	–
[1], 323.15 K	–	–	1.42472	–
[1], 328.15 K	–	–	1.42254	–
[1], 333.15 K	–	–	1.4202	–
[1], 338.15 K	–	–	1.41783	–
[1], 343.15 K	–	–	1.4163	–
[1], 348.15 K	–	–	1.41474	–
[1], 353.15 K	–	–	1.41282	–
[1], 358.15 K	–	–	1.41083	–
[2], 293.15 K	–	867.06	–	–
[2], 303.15 K	–	859.28	–	–
[2], 313.15 K	–	851.61	–	–
[2], 323.15 K	–	843.97	–	–
[2], 323.17 K	2.41e-06	–	–	23.37
[2], 333.15 K	–	836.37	–	–
[2], 343.15 K	–	828.8	–	–
[2], 348.16 K	1.76e-06	–	–	21.83
[2], 353.15 K	–	821.26	–	–
[2], 363.15 K	–	813.71	–	–
[2], 373.15 K	–	806.17	–	–
[2], 373.18 K	1.38e-06	–	–	20.78
[2], 383.15 K	–	798.64	–	–
[2], 393.15 K	–	791.09	–	–
[2], 398.2 K	1.08e-06	–	–	19.71
[2], 403.15 K	–	783.52	–	–
[2], 413.15 K	–	775.91	–	–
[2], 423.15 K	–	768.24	–	–
[2], 423.17 K	8.63e-07	–	–	18.31
[2], 433.15 K	–	760.61	–	–
[2], 443.15 K	–	752.95	–	–
[2], 448.17 K	7e-07	–	–	16.82
[2], 453.15 K	–	745.22	–	–
